What all share (conditions): Mus musculus
Test [1] has as its system NIH3T3. The test is described as follows: Inhibitory concentration against growth of wild type NIH 3T3 cells with inositol. Format: functional, cell-based.
Test [2] relates to NIH3T3. The test is described as follows: Inhibitory concentration against growth of wild type NIH 3T3 cells without inositol. Format: functional, cell-based.
Test [3] has as its system NIH3T3. The experiment in a line: Inhibitory concentration against growth of vis-sis transformed NIH 3T3 cells with inositol. It counts as functional, cell-based.
The subject of test [4] is NIH3T3. The test is described as follows: Inhibitory concentration against growth of vis-sis transformed NIH 3T3 cells without inositol. It counts as functional, cell-based.
In test [5] the test system is NIH3T3. The experiment in a line: Inhibitory activity against growth of wild type NIH 3T3 cells at 1 mM. Format: functional.
In test [6] the test system is NIH3T3. The experiment in a line: Inhibitory activity against growth of vis-sis transformed NIH 3T3 cells at 1 mM; IA means inactive. It counts as functional, cell-based.
For test [7], the system named is NIH3T3. The experiment in a line: Inhibitory activity against growth of wild type NIH 3T3 cells at 1 mM; IA means inactive. It counts as functional, cell-based.
In test [8] the test system is NIH3T3. The experiment in a line: Inhibitory concentration against growth of vis-sis transformed NIH 3T3 cells at 1 mM; IA means inactive. Format: functional, cell-based.

Activity calls are given as the source filed them. The calls are words filed in the database; no cut-off is given here.

As to `OC1C(O)C(O)C(CI)C(O)C1O` (centres undefined), the IC50 in test [1] was determined as 43 mM; in test [2] it was 23.8 mM; in test [3], 56.2 mM; in test [4], 19.9 mM.
`O=P(O)(O)CC1C(O)[C@H](O)C(O)[C@@H](O)C1O` (some centres undefined) registered an inhibition at 1000 µM in test [5] of 30%. Also, in test [6], the inhibition entry was “inactive”.
`COP(=O)(CC1C(O)[C@H](O)C(O)[C@@H](O)C1O)OC` (some centres undefined): the inhibition at 1000 µM in test [5] was 30%. For the same compound, the inhibition entry in test [6] is “inactive”.
For `OCC1C(O)C(O)C(O)C(O)C1O` (centres undefined), the IC50 in test [1] was 4.3 mM; in test [2], 23.8 mM; in test [3] it was 5.5 mM; in test [4] it was 10 mM.
On to `C=C1C(O)[C@H](O)C(O)[C@@H](O)C1O` (some centres undefined), for which the inhibition entry in test [7] and in test [8] was “inactive” in each case.

The record behind these values is ChEMBL document CHEMBL1126510, “Synthesis of D-3-deoxy-3-phosphonomethyl-myo-inositol and its dimethyl ester - compounds of use in studying the ptdins-3-kinase signalling pathway” (Bioorg Med Chem Lett, 1993).
